Data: US20030199526A1, “Pyrimidine-based compounds useful as GSK-3 inhibitors” (priority 2001, published 2003)

target: T1, GSK-3β (AA 1-420) (Homo sapiens, UniProt P49841); test: Ki determination for the inhibition of GSK-3 (coupled enzyme system); format: biochemical; details: 20 μM ATP, 300 μM peptide, 20 nM GSK-3β, 30° C.
T1 construct: GSK-3β (AA 1-420)
Method: Compounds were screened for their ability to inhibit GSK-3β (AA 1-420) activity using a standard coupled enzyme system [Fox et al. Protein Sci. 7, 2249 (1998)]. Reactions were carried out in a solution containing 100 mM HEPES (pH 7.5), 10 mM MgCl2, 25 mM NaCl, 300 μM NADH, 1 mM DTT and 1.5% DMSO. Final substrate concentrations in the assay were 20 μM ATP (Sigma Chemicals, St Louis, Mo.) and 300 μM peptide (American Peptide, Sunnyvale, Calif.). Reactions were carried out at 30° C. and 20 nM GSK-3β. Final concentrations of the components of the coupled enzyme system were 2.5 mM phosphoenolpyruvate, 300 μM NADH, 30 μg/ml pyruvate kinase and 10 μg/ml lactate dehydrogenase.
An assay stock buffer solution was prepared containing all of the reagents listed above with the exception of ATP and the test compound of interest. The assay stock buffer solution (175 μl) was incubated in a 96 well plate with 5 μl of the test compound of interest at final concentrations spanning 0.002 μM to 30 μM at 30° C. for 10 min. Typically, a 12 point titration was conducted by preparing serial dilutions (from 10 mM compound stocks) with DMSO of the test compounds in daughter plates. The reaction was initiated by the addition of 20 μl of ATP (final concentration 20 μM). Rates of reaction were obtained using a Molecular Devices Spectramax plate reader (Sunnyvale, Calif.) over 10 min at 30° C. The Ki values were determined from the rate data as a function of inhibitor concentration.

T1 sequence (P49841 whole entry, species assumed, the tested form may be a part): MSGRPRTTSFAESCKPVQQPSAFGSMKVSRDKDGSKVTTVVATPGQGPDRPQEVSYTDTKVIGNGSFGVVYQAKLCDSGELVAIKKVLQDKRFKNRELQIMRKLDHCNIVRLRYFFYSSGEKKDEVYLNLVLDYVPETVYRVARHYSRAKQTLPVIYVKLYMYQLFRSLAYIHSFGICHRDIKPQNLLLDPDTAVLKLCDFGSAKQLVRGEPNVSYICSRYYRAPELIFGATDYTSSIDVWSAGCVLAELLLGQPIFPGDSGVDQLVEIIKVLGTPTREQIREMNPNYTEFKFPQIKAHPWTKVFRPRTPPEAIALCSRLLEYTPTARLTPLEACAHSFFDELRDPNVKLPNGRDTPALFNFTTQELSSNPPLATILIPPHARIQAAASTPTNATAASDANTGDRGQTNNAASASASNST

Compound | Ki
N#Cc1ccc(NCCNc2nc(-c3ccc(Cl)cc3Cl)nc3ccccc23)cc1 [Compound I-62, 4-{2-[2-(2,4-Dichloro-phenyl)-quinazolin-4-ylamino]-ethylamino}-benzonitrile] | < 100 nM
N#Cc1ccc(NCCNc2nc(-c3cc(Cl)ccc3-c3ccccc3)nc3ccccc23)nc1 [Compound I-195, 6-{2-[2-(4-Chloro-biphenyl-2-yl)-quinazolin-4-ylamino]-ethylamino}-nicotinonitrile] | < 100 nM
N#Cc1ccc(NCCNc2nc(-c3ccccc3)nc3ccccc23)nc1 [Compound I-9, 6-[2-(2-Phenyl-quinazolin-4-ylamino)-ethylamino]-nicotinonitrile] | < 100 nM
N#Cc1ccc(-c2nc(NCCNc3ccc(C#N)cn3)c3ccccc3n2)cc1 [Compound I-19, 6-{2-[2-(4-Cyano-phenyl)-quinazolin-4-ylamino]-ethylamino}-nicotinonitrile] | < 100 nM
COc1ccccc1-c1nc(NCCNc2ccc(C#N)cn2)c2ccccc2n1 [Compound I-188, 6-{2-[2-(2-Methoxy-phenyl)-quinazolin-4-ylamino]-ethylamino}-nicotinonitrile] | < 100 nM
Cc1nc(-c2ccccc2Cl)nc(NCCNc2ccc(C#N)cn2)c1C [Compound I-200] | < 100 nM
Cc1nc(-c2ccc(Cl)cc2Cl)nc(NCCNc2ccc(C#N)cn2)c1C [Compound I-198, 6-{2-[2-(2,4-Dichloro-phenyl)-5,6-dimethyl-pyrimidin-4-ylamino]-ethylamino}-nicotinonitrile] | < 100 nM
Cc1nc(-c2ccccc2C(F)(F)F)nc(NCCNc2ccc(C#N)cn2)c1C [Compound I-197, 6-{2-[5,6-Dimethyl-2-(2-trifluoromethyl-phenyl)-pyrimidin-4-ylamino]-ethylamino}-nicotinonitrile] | < 100 nM
N#Cc1ccc(NCCNc2nc(-c3ccccc3C(F)(F)F)nc3ccccc23)nc1 [Compound I-8, 6-{2-[2-(Trifluoromethyl-phenyl)-quinazolin-4-ylamino]-ethylamino}-nicotinonitrile] | < 100 nM
N#Cc1ccc(NCCNc2nc(-c3ccccc3Cl)nc3cccnc23)nc1 [Compound I-118, 6-{2-[2-(2-Chloro-phenyl)-pyrido[3,2-d]pyrimidin-4-ylamino]-ethylamino}-nicotinonitrile] | < 100 nM
N#Cc1ccc(NCCNc2nc(-c3ccc(F)cc3F)nc3ccccc23)nc1 [Compound I-191, 6-{2-[2-(2,4-Difluoro-phenyl)-quinazolin-4-ylamino]-ethylamino}-nicotinonitrile] | < 100 nM
N#Cc1ccc(NCCNc2nc(-c3ccc(Cl)cc3Cl)nc3ccccc23)nc1 [Compound I-1, 6-{2-[2-(2,4-Dichloro-phenyl)-quinazolin-4-ylamino]-ethylamino}-nicotinonitrile] | < 100 nM
N#Cc1ccc(NCCNc2nc(-c3ccc(Cl)cc3)nc3ccccc23)nc1 [Compound I-2] | < 100 nM
N#Cc1ccc(NCCNc2nc(-c3ccccc3F)nc3ccccc23)nc1 [Compound I-190, 6-{2-[2-(2-Fluoro-phenyl)-quinazolin-4-ylamino]-ethylamino}-nicotinonitrile] | < 100 nM
N#Cc1ccc(NCCNc2nc(-c3ccccc3O)nc3ccccc23)nc1 [Compound I-189, 6-{2-[2-(2-Hydroxy-phenyl)-quinazolin-4-ylamino]-ethylamino}-nicotinonitrile] | < 100 nM
N#Cc1ccc(NCCNc2nc(-c3ccccc3Cl)nc3ccccc23)nc1 [Compound I-11, 6-{2-[2-(2-Chloro-phenyl)-quinazolin-4-ylamino]-ethylamino}-nicotinonitrile] | < 100 nM
